Test results: the NIST ThermoML archive (doi:10.1021/je200793z)

Key:
[1] = xn = mol fraction of the nth substance listed

CCO [ethanol] + CC(C)CCO
[1], x2 = 0
Settings	surface tension liquid-gas [mN/m]
293.15 K	22.31
298.15 K	21.82
303.15 K	21.41
308.15 K	21.04
313.15 K	20.62
318.15 K	20.22
323.15 K	19.82

CC(C)CCO [3-methylbutan-1-ol] + CCO
surface tension liquid-gas [mN/m], [1]
Settings	293.15 K	298.15 K	303.15 K	308.15 K	313.15 K	318.15 K	323.15 K
x1 = 0.0268	22.56	22.09	21.7	21.35	20.95	20.56	20.17
x1 = 0.0549	22.78	22.32	21.94	21.59	21.19	20.81	20.44
x1 = 0.0845	22.98	22.54	22.17	21.81	21.41	21.04	20.67
x1 = 0.1156	23.17	22.73	22.36	22.01	21.62	21.24	20.87
x1 = 0.1484	23.33	22.9	22.53	22.17	21.78	21.41	21.04
x1 = 0.183	23.49	23.05	22.68	22.32	21.92	21.55	21.17
x1 = 0.2584	23.75	23.32	22.95	22.58	22.18	21.8	21.42
x1 = 0.3433	23.96	23.54	23.17	22.79	22.39	22.01	21.63
x1 = 0.4395	24.13	23.72	23.36	22.97	22.57	22.19	21.81
x1 = 0.5495	24.25	23.85	23.49	23.1	22.7	22.33	21.95
x1 = 0.6765	24.34	23.96	23.61	23.21	22.82	22.44	22.06
x1 = 0.8247	24.41	24.05	23.71	23.29	22.89	22.51	22.12
x1 = 1	24.5	24.15	23.8	23.36	22.96	22.57	22.17

CCO [ethanol] + CCC(C)CO
[1], x2 = 0
Settings	surface tension liquid-gas [mN/m]
293.15 K	22.31
298.15 K	21.82
303.15 K	21.41
308.15 K	21.04
313.15 K	20.62
318.15 K	20.22
323.15 K	19.82

CCC(C)(C)O [2-methylbutan-2-ol]
Settings	surface tension liquid-gas [mN/m]
293.15 K	24.04
298.15 K	23.61
303.15 K	23.14
308.15 K	22.69
313.15 K	22.3
318.15 K	21.86
323.15 K	21.44

CCC(C)CO (stereo not drawn) [2-methyl-1-butanol] + CCO
surface tension liquid-gas [mN/m], [1]
Settings	293.15 K	298.15 K	303.15 K	308.15 K	313.15 K	318.15 K	323.15 K
x1 = 0.0268	22.48	22.1	21.71	21.39	21.04	20.68	20.36
x1 = 0.0549	22.65	22.25	21.9	21.56	21.22	20.9	20.55
x1 = 0.0845	22.76	22.37	21.99	21.67	21.33	21	20.64
x1 = 0.1156	22.86	22.47	22.1	21.75	21.44	21.08	20.73
x1 = 0.1484	22.96	22.54	22.17	21.82	21.49	21.12	20.81
x1 = 0.183	23.01	22.62	22.23	21.89	21.54	21.2	20.86
x1 = 0.2584	23.15	22.72	22.35	22	21.61	21.24	20.91
x1 = 0.3433	23.28	22.86	22.46	22.11	21.76	21.37	20.98
x1 = 0.4395	23.43	22.98	22.58	22.22	21.83	21.44	21.05
x1 = 0.5495	23.56	23.09	22.69	22.3	21.94	21.54	21.15
x1 = 0.6765	23.72	23.25	22.82	22.41	22.02	21.61	21.27
x1 = 0.8247	23.89	23.38	22.96	22.54	22.13	21.7	21.33
x1 = 1	24.09	23.61	23.14	22.69	22.3	21.86	21.44
